Reference: ChEMBL document CHEMBL4229381, “New cytokinin derivatives possess UVA and UVB photoprotective effect on human skin cells and prevent oxidative stress” (Eur J Med Chem, 2018)
Calls of active or inactive are those of the source. The calls are words filed in the database; no cut-off is given here.

Legend:
[1] = Stability of the compound in pH 6 solution at 10^-4 M after 1 hr by HPLC analysis; type: physicochemical; details: read-out: Stability
[2] = Stability of the compound in pH 5 solution at 10^-4 M after 1 hr by HPLC analysis; type: physicochemical; details: read-out: Stability
[3] = Stability of the compound in pH 4 solution at 10^-4 M after 1 hr by HPLC analysis; type: physicochemical; details: read-out: Stability
[4] = Stability of the compound in pH 3 solution at 10^-4 M after 1 hr by HPLC analysis; type: physicochemical; details: read-out: Stability
[5] = Stability of the compound in pH 6 solution at 10^-4 M after 24 hrs by HPLC analysis; type: physicochemical; details: read-out: Stability
[6] = Stability of the compound in pH 5 solution at 10^-4 M after 24 hrs by HPLC analysis; type: physicochemical; details: read-out: Stability
[7] = Stability of the compound in pH 4 solution at 10^-4 M after 24 hrs by HPLC analysis; type: physicochemical; details: read-out: Stability
[8] = Stability of the compound in pH 3 solution at 10^-4 M after 24 hrs by HPLC analysis; type: physicochemical; details: read-out: Stability
BJ = test: Cytotoxicity in human BJ cells assessed as reduction in cell viability at 50 uM after 24 hrs by resazurin dye-based fluorescence assay relative to control
[9] = Cytotoxicity in human NHDF cells assessed as cell viability at 3.9 uM after 24 hrs by neutral red uptake assay relative to control; type: cell-based; details: read-out: Activity
[10] = Cytotoxicity in human NHDF cells assessed as cell viability at 7.8 uM after 24 hrs by neutral red uptake assay relative to control; type: cell-based; details: read-out: Activity
[11] = Cytotoxicity in human NHDF cells assessed as cell viability at 31.3 uM after 24 hrs by neutral red uptake assay relative to control; type: cell-based; details: read-out: Activity
[12] = Cytotoxicity in human NHDF cells assessed as cell viability at 125 uM after 24 hrs by neutral red uptake assay relative to control; type: cell-based; details: read-out: Activity
[13] = Phototoxicity in human NHDF cells assessed as cell viability at 7.8 uM preincubated for 60 mins followed by 5 J/cm2 UVA irradiation and measured after 24 hrs by neutral red uptake assay relative to control; type: cell-based; details: read-out: Activity
[14] = Phototoxicity in human NHDF cells assessed as cell viability at 15.6 uM preincubated for 60 mins followed by 5 J/cm2 UVA irradiation and measured after 24 hrs by neutral red uptake assay relative to control; type: cell-based; details: read-out: Activity
[15] = Phototoxicity in human NHDF cells assessed as cell viability at 31.3 uM preincubated for 60 mins followed by 5 J/cm2 UVA irradiation and measured after 24 hrs by neutral red uptake assay relative to control; type: cell-based; details: read-out: Activity
[16] = Phototoxicity in human NHDF cells assessed as cell viability at 62.5 uM preincubated for 60 mins followed by 5 J/cm2 UVA irradiation and measured after 24 hrs by neutral red uptake assay relative to control; type: cell-based; details: read-out: Activity
[17] = Phototoxicity in human NHDF cells assessed as cell viability at 125 uM preincubated for 60 mins followed by 5 J/cm2 UVA irradiation and measured after 24 hrs by neutral red uptake assay relative to control; type: cell-based; details: read-out: Activity
[18] = Cytotoxicity in human HaCaT cells assessed as cell viability at 3.9 uM after 24 hrs by neutral red uptake assay relative to control; type: cell-based; details: read-out: Activity
[19] = Cytotoxicity in human HaCaT cells assessed as cell viability at 7.8 uM after 24 hrs by neutral red uptake assay relative to control; type: cell-based; details: read-out: Activity
[20] = Cytotoxicity in human HaCaT cells assessed as cell viability at 15.6 uM after 24 hrs by neutral red uptake assay relative to control; type: cell-based; details: read-out: Activity
[21] = Cytotoxicity in human HaCaT cells assessed as cell viability at 62.5 uM after 24 hrs by neutral red uptake assay relative to control; type: cell-based; details: read-out: Activity
[22] = Phototoxicity in human HaCaT cells assessed as cell viability at 7.8 uM preincubated for 60 mins followed by 7.5 J/cm2 UVA irradiation and measured after 24 hrs by neutral red uptake assay relative to control; type: cell-based; details: read-out: Activity
[23] = Phototoxicity in human HaCaT cells assessed as cell viability at 15.6 uM preincubated for 60 mins followed by 7.5 J/cm2 UVA irradiation and measured after 24 hrs by neutral red uptake assay relative to control; type: cell-based; details: read-out: Activity
[24] = Phototoxicity in human HaCaT cells assessed as cell viability at 62.5 uM preincubated for 60 mins followed by 7.5 J/cm2 UVA irradiation and measured after 24 hrs by neutral red uptake assay relative to control; type: cell-based; details: read-out: Activity
[25] = Phototoxicity in human HaCaT cells assessed as cell viability at 125 uM preincubated for 60 mins followed by 7.5 J/cm2 UVA irradiation and measured after 24 hrs by neutral red uptake assay relative to control; type: cell-based; details: read-out: Activity
NHDF [26] = test: Cytoprotection against phototoxicity in human NHDF cells assessed as increase in cell viability at 3.9 to 31.3 uM preincubated for 60 mins followed by 7.5 J/cm2 UVA irradiation and measured after 24 hrs by neutral red uptake assay; type: functional, cell-based
NHDF [27] = test: Cytoprotection against phototoxicity in human NHDF cells assessed as increase in cell viability at 31.3 uM preincubated for 60 mins followed by 150 mJ/cm2 UVB irradiation and measured after 24 hrs by neutral red uptake assay; type: functional, cell-based
NHDF [28] = test: Cytoprotection against phototoxicity in human NHDF cells assessed as increase in cell viability at 3.9 to 31.3 uM preincubated for 60 mins followed by 150 mJ/cm2 UVB irradiation and measured after 24 hrs by neutral red uptake assay; type: functional, cell-based
HaCaT [29] = test: Potency index, ratio of compound effect to rosmarinic acid effect for cytoprotection against phototoxicity in human HaCaT cells assessed as increase in cell viability at 3.9 uM preincubated for 60 mins followed by 150 mJ/cm2 UVB irradiation and measured after 24 hrs by neutral red uptake assay; type: functional
HaCaT [30] = test: Potency index, ratio of compound effect to rosmarinic acid effect for cytoprotection against phototoxicity in human HaCaT cells assessed as increase in cell viability at 3.9 uM preincubated for 60 mins followed by 10 J/cm2 UVA irradiation and measured after 24 hrs by neutral red uptake assay; type: functional
Nicotiana tabacum = test: Growth promoting activity in tobacco callus assessed as callus weight at 10^-5 mol/L after 4 weeks relative to control; type: functional
Amaranthus caudatus = test: Growth promoting activity in Amaranthus caudatus var. atropurpurea seeds by measuring betacyanin at 10^-4 mol/L after 48 hrs relative to control; type: functional
Triticum aestivum = test: Anti-senescent activity in leaf of Triticum aestivum cv. Hereward seedlings by measuring chlorophyll retention at 10^-4 mol/L after 4 days relative to control; type: functional
Caenorhabditis elegans [31] = test: Protection against juglone-induced oxidative stress in wild type Caenorhabditis elegans N2 at 100 uM preincubated for 3 days followed by juglone addition and measured after 4 hrs by inverted microscopic analysis; type: functional, organism-based
Caenorhabditis elegans [32] = test: Protection against juglone-induced oxidative stress in Caenorhabditis elegans BA17 (fem-1) at 100 uM preincubated for 3 days followed by juglone addition measured every hour for 12 ro 14 hrs by inverted microscopic analysis; type: functional, organism-based
HaCaT [33] = test: Potency index, ratio […] for cytoprotection against phototoxicity in human HaCaT cells assessed as increase in cell viability at 3.9 preincubated for 60 mins followed by 150 mJ/cm2 UVB irradiation and measured after 24 hrs by neutral red uptake assay; type: functional

`c1csc(CNc2ncnc3c2ncn3C2CCCO2)c1` (configuration not stated) showed a remaining at 1 h, 100 µM [1] of 100%, a remaining at 1 h, 100 µM [2] of 100% and a remaining at 1 h, 100 µM [3] of 99.4%. For the same compound, the remaining at 1 h, 100 µM [4] was 94.6%, the remaining at 24 h, 100 µM [5] was 100% and the remaining at 24 h, 100 µM [6] was 94.2%. The remaining at 24 h, 100 µM [7] was 52.1%, the remaining at 24 h, 100 µM [8] was 0.8% and the Activity (BJ) was under 10%. For the same compound, the viability at 24 h, 3.9 µM [9] was 100%, the viability at 24 h, 7.8 µM [10] was 103% and the viability at 24 h, 31.3 µM [11] was 107%. For the same compound, the viability at 24 h, 125 µM [12] was 108%, the viability at 24 h, 7.8 µM [13] was 102% and the viability at 24 h, 15.6 µM [14] was 101%. For the same compound, the viability at 24 h, 31.3 µM [15] was 106%, the viability at 24 h, 62.5 µM [16] was 103% and the viability at 24 h, 125 µM [17] was 106%. It also gave a viability at 24 h, 3.9 µM [18] of 101%, a viability at 24 h, 7.8 µM [19] of 101% and a viability at 24 h, 15.6 µM [20] of 100%. The viability at 24 h, 62.5 µM [21] was 104%, the viability at 24 h, 7.8 µM [22] was 124% and the viability at 24 h, 15.6 µM [23] was 121%. The viability at 24 h, 62.5 µM [24] was 130%, the viability at 24 h, 125 µM [25] was 127% and the Activity (NHDF [26]) was “Active”. The Activity (NHDF [27]) was “Active”, the Activity (NHDF [28]) was “Active” and the Ratio (HaCaT [29]) was over 2. It also gave a Ratio (HaCaT [30]) of 3, an Activity (Nicotiana tabacum) of 105% and an Activity (Amaranthus caudatus) of 81%. The Activity (Triticum aestivum) was 102%, the Activity (Caenorhabditis elegans [31]) was “Active” and the Activity (Caenorhabditis elegans [32]) was “Active”. The Ratio (HaCaT [33]) was over 2.
